Broadly, the Ki is a measure of affinity in units of concentration, obtained from inhibition or displacement. A higher Ki goes with weaker binding.

This passage reports Ki results from BindingDB's records for doi:10.1073/pnas.83.22.8784 (The Oregon Health Sciences University, 1986).

Assay [1] addresses T1, Alpha-1A adrenergic receptor (Rattus norvegicus, UniProt P43140).
T1 sequence (P43140 whole entry): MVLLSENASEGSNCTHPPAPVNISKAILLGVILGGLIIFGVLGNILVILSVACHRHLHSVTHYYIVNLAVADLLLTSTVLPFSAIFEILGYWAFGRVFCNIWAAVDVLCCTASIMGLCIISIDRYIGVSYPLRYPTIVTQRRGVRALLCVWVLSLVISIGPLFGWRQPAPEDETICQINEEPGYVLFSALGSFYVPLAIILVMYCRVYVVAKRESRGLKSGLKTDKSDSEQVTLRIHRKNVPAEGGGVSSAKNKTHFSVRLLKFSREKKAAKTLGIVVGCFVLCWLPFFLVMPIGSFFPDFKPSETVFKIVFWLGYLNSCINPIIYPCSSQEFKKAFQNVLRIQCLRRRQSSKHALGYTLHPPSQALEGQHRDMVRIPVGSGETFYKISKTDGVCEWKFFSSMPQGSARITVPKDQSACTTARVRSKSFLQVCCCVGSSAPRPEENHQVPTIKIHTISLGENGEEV

In assay [2] the target is T2, Alpha-2C adrenergic receptor (Rattus norvegicus, UniProt P22086).
T2 sequence (P22086 whole entry): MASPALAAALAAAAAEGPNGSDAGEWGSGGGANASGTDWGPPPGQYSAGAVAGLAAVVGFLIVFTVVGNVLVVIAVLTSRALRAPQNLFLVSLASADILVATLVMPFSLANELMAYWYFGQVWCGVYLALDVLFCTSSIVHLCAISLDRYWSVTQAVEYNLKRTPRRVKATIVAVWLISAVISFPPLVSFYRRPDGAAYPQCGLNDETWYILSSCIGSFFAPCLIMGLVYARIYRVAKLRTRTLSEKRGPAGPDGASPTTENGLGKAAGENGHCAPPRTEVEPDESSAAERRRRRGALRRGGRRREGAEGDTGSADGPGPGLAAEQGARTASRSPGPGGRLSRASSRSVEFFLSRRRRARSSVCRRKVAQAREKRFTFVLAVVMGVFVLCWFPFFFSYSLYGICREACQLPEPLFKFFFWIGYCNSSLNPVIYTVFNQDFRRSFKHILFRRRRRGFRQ

The target of assay [3] is 5-hydroxytryptamine receptor 2A (Rattus norvegicus, UniProt P14842).
5-hydroxytryptamine receptor 2A, sequence (P14842 whole entry): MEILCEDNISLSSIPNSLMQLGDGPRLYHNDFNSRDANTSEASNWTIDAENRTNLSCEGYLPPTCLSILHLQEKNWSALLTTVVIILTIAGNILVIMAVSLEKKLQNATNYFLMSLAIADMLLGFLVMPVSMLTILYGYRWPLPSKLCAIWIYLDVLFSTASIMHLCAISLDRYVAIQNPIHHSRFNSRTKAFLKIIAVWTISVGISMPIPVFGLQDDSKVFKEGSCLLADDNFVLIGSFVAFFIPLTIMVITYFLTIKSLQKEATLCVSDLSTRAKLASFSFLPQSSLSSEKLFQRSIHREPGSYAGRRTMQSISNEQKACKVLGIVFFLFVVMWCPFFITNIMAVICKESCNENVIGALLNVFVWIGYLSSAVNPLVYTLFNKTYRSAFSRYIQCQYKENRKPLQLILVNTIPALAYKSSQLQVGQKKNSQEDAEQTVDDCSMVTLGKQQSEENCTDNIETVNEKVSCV

Molecules are shown by their SMILES.

Regarding `Cc1nc2sccn2c(=O)c1CCN1CCC(=C(c2ccc(F)cc2)c2ccc(F)cc2)CC1`, the Ki amounted to 0.191 µM in assay [1] and 0.631 µM in assay [2].
On the same counts, the results for `O=C(c1ccc(F)cc1)C1CCN(CCn2c(=O)[nH]c3ccccc3c2=O)CC1` [3-(2-{4-[(4-fluorophenyl)carbonyl]piperidin-1-yl}ethyl)-1,2,3,4-tetrahydroquinazoline-2,4-dione] are 0.0724 µM and 0.295 µM.
The matching figures for `O=C(c1ccc(F)cc1)C1CCN(CCCCn2c(=O)[nH]c3ccccc3c2=O)CC1` [CAS_87051-46-5]: 0.00186 µM and 0.0759 µM.
With `NC(N)=NN=Cc1c(Cl)cccc1Cl` [Guanabenz], the values for the Ki in assay [3] and in assay [2] were 0.2 µM and greater than 10 µM, respectively.
Consider `Cn1c(=O)c2c(ncn2CCN2CCC(C(=O)c3ccc(F)cc3)CC2)n(C)c1=O` [NSC_71255], for which the Ki in assay [3] was found to be 0.0045 µM; in assay [1] it was 0.12 µM; in assay [2], 0.417 µM.
The matching figures for `Cc1nc2ccccn2c(=O)c1CCN1CCC(=C(c2ccc(F)cc2)c2ccc(F)cc2)CC1` [NSC_159037]: 0.006 µM, 0.257 µM and 0.282 µM.
